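Growth conditions: 96-well plates. Treatment: test compound, 48 hours, 5 concentrations. Analysis: linear interpolation between bracketing concentrations; unreached endpoints set to highest concentration. At the GI50, growth is halved. At the TGI there is no net growth.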
Experiments:
Assay in all cases: NCI-60 cell line screen, 48 h; in the data active means GI50 below about 0.43 µM; inactive means the rest
OVCAR-8 ovarian = tested on: OVCAR-8 ovarian
TK-10 renal = tested on: TK-10 renal
HS 578T breast = tested on: HS 578T breast
HCT-15 colon = tested on: HCT-15 colon
MDA-MB-435 = tested on: MDA-MB-435
HOP-92 NSCLC = tested on: HOP-92 NSCLC
NCI-H460 lung = tested on: NCI-H460 lung
MDA-MB-231 breast = tested on: MDA-MB-231 breast
HOP-62 NSCLC = tested on: HOP-62 NSCLC
MCF7 breast = tested on: MCF7 breast
U251 CNS = tested on: U251 CNS
HL-60(TB) leukemia = tested on: HL-60(TB) leukemia
SK-MEL-2 melanoma = tested on: SK-MEL-2 melanoma
CCRF-CEM leukemia = tested on: CCRF-CEM leukemia
SK-OV-3 ovarian = tested on: SK-OV-3 ovarian
RPMI-8226 leukemia = tested on: RPMI-8226 leukemia
HCC-2998 colon = tested on: HCC-2998 colon
NCI/ADR-RES ovarian = tested on: NCI/ADR-RES ovarian
CAKI-1 renal = tested on: CAKI-1 renal
SK-MEL-5 melanoma = tested on: SK-MEL-5 melanoma
UO-31 renal = tested on: UO-31 renal
NCI-H522 lung = tested on: NCI-H522 lung
UACC-257 melanoma = tested on: UACC-257 melanoma
IGROV1 ovarian = tested on: IGROV1 ovarian
RXF 393 renal = tested on: RXF 393 renal
T-47D breast = tested on: T-47D breast
HT29 colon = tested on: HT29 colon
KM12 colon = tested on: KM12 colon
OVCAR-3 ovarian = tested on: OVCAR-3 ovarian
LOX IMVI melanoma = tested on: LOX IMVI melanoma
OVCAR-5 ovarian = tested on: OVCAR-5 ovarian
EKVX NSCLC = tested on: EKVX NSCLC
DU-145 prostate = tested on: DU-145 prostate
NCI-H23 lung = tested on: NCI-H23 lung
K-562 leukemia = tested on: K-562 leukemia
PC-3 prostate = tested on: PC-3 prostate
SF-268 CNS = tested on: SF-268 CNS
MALME-3M melanoma = tested on: MALME-3M melanoma
UACC-62 melanoma = tested on: UACC-62 melanoma
OVCAR-4 ovarian = tested on: OVCAR-4 ovarian
SW-620 colon = tested on: SW-620 colon
SNB-19 CNS = tested on: SNB-19 CNS
SN12C renal = tested on: SN12C renal
MOLT-4 leukemia = tested on: MOLT-4 leukemia
ACHN renal = tested on: ACHN renal
SF-539 CNS = tested on: SF-539 CNS
SF-295 CNS = tested on: SF-295 CNS
SNB-75 CNS = tested on: SNB-75 CNS
BT-549 breast = tested on: BT-549 breast
HCT-116 colon = tested on: HCT-116 colon
A498 renal = tested on: A498 renal
A549 NSCLC = tested on: A549 NSCLC
M14 melanoma = tested on: M14 melanoma
SK-MEL-28 melanoma = tested on: SK-MEL-28 melanoma

COc1ccc2c3c([nH]c2c1)C(=O)c1nc(C)ccc1C3=O
5.41 µM: TGI (UACC-257 melanoma)
7.05 µM: TGI (OVCAR-3 ovarian)
3.19 µM: TGI (MDA-MB-435)
inactive: GI50 (OVCAR-8 ovarian) 3.35 µM | GI50 (TK-10 renal) > 100 µM | GI50 (HS 578T breast) 13.6 µM | GI50 (HCT-15 colon) 1.94 µM | GI50 (MDA-MB-435) 1.78 µM | GI50 (HOP-92 NSCLC) 20.7 µM | GI50 (NCI-H460 lung) 1.02 µM | GI50 (MDA-MB-231 breast) 3.33 µM | GI50 (HOP-62 NSCLC) 3.5 µM | GI50 (MCF7 breast) 1.98 µM | GI50 (U251 CNS) 4.85 µM | GI50 (HL-60(TB) leukemia) 2.79 µM | GI50 (SK-MEL-2 melanoma) 7.04 µM | GI50 (CCRF-CEM leukemia) 3.69 µM | GI50 (SK-OV-3 ovarian) > 100 µM | GI50 (RPMI-8226 leukemia) 2.91 µM | GI50 (HCC-2998 colon) 3.81 µM | GI50 (NCI/ADR-RES ovarian) 2.75 µM | GI50 (CAKI-1 renal) 3.82 µM | GI50 (SK-MEL-5 melanoma) 0.792 µM | GI50 (UO-31 renal) 1.03 µM | GI50 (NCI-H522 lung) 3.83 µM | GI50 (UACC-257 melanoma) 1.48 µM | GI50 (RXF 393 renal) 7.3 µM | GI50 (T-47D breast) 2.65 µM | GI50 (HT29 colon) 3.88 µM | GI50 (KM12 colon) 4.95 µM | GI50 (OVCAR-3 ovarian) 1.62 µM | GI50 (LOX IMVI melanoma) 2.24 µM | GI50 (OVCAR-5 ovarian) 4.42 µM | GI50 (EKVX NSCLC) 2.68 µM | GI50 (DU-145 prostate) 1.7 µM | GI50 (NCI-H23 lung) 1.08 µM | GI50 (K-562 leukemia) 3.31 µM | GI50 (PC-3 prostate) 2 µM | GI50 (SF-268 CNS) 7.8 µM | GI50 (UACC-62 melanoma) 1.4 µM | GI50 (OVCAR-4 ovarian) 2.06 µM | GI50 (SW-620 colon) 3.66 µM | GI50 (SNB-19 CNS) 2.61 µM | GI50 (SN12C renal) 3.24 µM | GI50 (MOLT-4 leukemia) 2.63 µM | GI50 (ACHN renal) 2.55 µM | GI50 (SF-539 CNS) 3.75 µM | GI50 (SF-295 CNS) 1.21 µM
1.65 µM: TGI (MALME-3M melanoma)
3.24 µM: TGI (DU-145 prostate)
active: GI50 (IGROV1 ovarian) 0.326 µM | GI50 (MALME-3M melanoma) 0.331 µM
2.64 µM: TGI (SF-295 CNS)
2.2 µM: TGI (SK-MEL-5 melanoma)
> 100 µM: TGI (OVCAR-8 ovarian) | TGI (TK-10 renal) | TGI (HS 578T breast) | TGI (HCT-15 colon) | TGI (HOP-92 NSCLC) | TGI (MDA-MB-231 breast) | TGI (HOP-62 NSCLC) | TGI (MCF7 breast) | TGI (U251 CNS) | TGI (HL-60(TB) leukemia) | TGI (SK-MEL-2 melanoma) | TGI (CCRF-CEM leukemia) | TGI (SK-OV-3 ovarian) | TGI (RPMI-8226 leukemia) | TGI (HCC-2998 colon) | TGI (NCI/ADR-RES ovarian) | TGI (CAKI-1 renal) | TGI (UO-31 renal) | TGI (NCI-H522 lung) | TGI (IGROV1 ovarian) | TGI (RXF 393 renal) | TGI (T-47D breast) | TGI (HT29 colon) | TGI (KM12 colon) | TGI (LOX IMVI melanoma) | TGI (OVCAR-5 ovarian) | TGI (EKVX NSCLC) | TGI (K-562 leukemia) | TGI (PC-3 prostate) | TGI (SF-268 CNS) | TGI (OVCAR-4 ovarian) | TGI (SW-620 colon) | TGI (SNB-19 CNS) | TGI (SN12C renal) | TGI (MOLT-4 leukemia) | TGI (ACHN renal) | TGI (SF-539 CNS)
3.28 µM: TGI (NCI-H460 lung)
4.07 µM: TGI (NCI-H23 lung)
3.08 µM: TGI (UACC-62 melanoma)

Cc1ccc(C2CC(c3cccc(Nc4ccncc4)c3)=NN2c2cc(Cl)cc(Cl)c2)cc1 (stereo unspecified)
4.53 µM: TGI (HOP-62 NSCLC)
2.59 µM: TGI (UO-31 renal)
2.85 µM: TGI (HCC-2998 colon)
3.88 µM: TGI (U251 CNS)
3.52 µM: TGI (DU-145 prostate)
4.44 µM: TGI (MOLT-4 leukemia)
inactive: GI50 (OVCAR-8 ovarian) 2.21 µM | GI50 (SNB-75 CNS) 1.23 µM | GI50 (TK-10 renal) 1.64 µM | GI50 (HCT-15 colon) 1.67 µM | GI50 (MDA-MB-435) 1.66 µM | GI50 (HOP-92 NSCLC) 1.37 µM | GI50 (NCI-H460 lung) 1.83 µM | GI50 (BT-549 breast) 1.74 µM | GI50 (HCT-116 colon) 1.85 µM | GI50 (HOP-62 NSCLC) 1.91 µM | GI50 (MCF7 breast) 1.89 µM | GI50 (U251 CNS) 1.86 µM | GI50 (HL-60(TB) leukemia) 1.83 µM | GI50 (SK-MEL-2 melanoma) 2 µM | GI50 (CCRF-CEM leukemia) 3.47 µM | GI50 (SK-OV-3 ovarian) 1.68 µM | GI50 (HCC-2998 colon) 1.52 µM | GI50 (A498 renal) 1.21 µM | GI50 (CAKI-1 renal) 1.54 µM | GI50 (SK-MEL-5 melanoma) 1.76 µM | GI50 (UO-31 renal) 1.31 µM | GI50 (NCI-H522 lung) 1.73 µM | GI50 (UACC-257 melanoma) 1.88 µM | GI50 (A549 NSCLC) 1.78 µM | GI50 (M14 melanoma) 1.93 µM | GI50 (IGROV1 ovarian) 1.69 µM | GI50 (KM12 colon) 1.65 µM | GI50 (OVCAR-3 ovarian) 1.72 µM | GI50 (LOX IMVI melanoma) 1.55 µM | GI50 (OVCAR-5 ovarian) 1.65 µM | GI50 (EKVX NSCLC) 1.55 µM | GI50 (DU-145 prostate) 1.9 µM | GI50 (SK-MEL-28 melanoma) 1.77 µM | GI50 (NCI-H23 lung) 1.76 µM | GI50 (K-562 leukemia) 1.85 µM | GI50 (PC-3 prostate) 1.58 µM | GI50 (MALME-3M melanoma) 1.67 µM | GI50 (UACC-62 melanoma) 1.77 µM | GI50 (OVCAR-4 ovarian) 1.58 µM | GI50 (SW-620 colon) 1.69 µM | GI50 (SNB-19 CNS) 1.72 µM | GI50 (SN12C renal) 1.71 µM | GI50 (MOLT-4 leukemia) 1.94 µM | GI50 (ACHN renal) 1.65 µM | GI50 (SF-539 CNS) 1.65 µM | GI50 (SF-295 CNS) 1.72 µM
2.94 µM: TGI (EKVX NSCLC)
3.2 µM: TGI (PC-3 prostate)
3.26 µM: TGI (SW-620 colon)
3.17 µM: TGI (SK-MEL-5 melanoma)
3.24 µM: TGI (SN12C renal)
4.1 µM: TGI (MCF7 breast)
3.3 µM: TGI (SK-MEL-28 melanoma)
3.04 µM: TGI (KM12 colon)
3.03 µM: TGI (CAKI-1 renal)
3.83 µM: TGI (UACC-257 melanoma)
2.78 µM: TGI (HOP-92 NSCLC)
3.06 µM: TGI (OVCAR-5 ovarian)
4.11 µM: TGI (HL-60(TB) leukemia)
3.58 µM: TGI (NCI-H522 lung)
3.25 µM: TGI (MALME-3M melanoma) | TGI (UACC-62 melanoma)
3.11 µM: TGI (MDA-MB-435)
> 100 µM: TGI (CCRF-CEM leukemia)
3.07 µM: TGI (TK-10 renal)
2.89 µM: TGI (LOX IMVI melanoma)
3.1 µM: TGI (HCT-15 colon) | TGI (OVCAR-4 ovarian) | TGI (SF-295 CNS)
3.45 µM: TGI (SNB-19 CNS)
3.6 µM: TGI (A549 NSCLC)
3.85 µM: TGI (HCT-116 colon)
2.62 µM: TGI (SNB-75 CNS)
3.23 µM: TGI (IGROV1 ovarian) | TGI (OVCAR-3 ovarian)
3.35 µM: TGI (NCI-H23 lung)
4.58 µM: TGI (K-562 leukemia)
3.55 µM: TGI (NCI-H460 lung)
2.47 µM: TGI (A498 renal)
5.24 µM: TGI (OVCAR-8 ovarian)
3 µM: TGI (ACHN renal)
3.38 µM: TGI (BT-549 breast) | TGI (SK-OV-3 ovarian)
3.99 µM: TGI (SK-MEL-2 melanoma) | TGI (M14 melanoma)
3.05 µM: TGI (SF-539 CNS)

— PubChem BioAssay (NCI)
